Entries after “also recorded” stand apart in the source; their conditions may differ.
Legend:
[1] = test system: microglia; experiment: LPA-induced microglial activation in hippocampal slices; format: cell-based, mouse; details: AM152, 10 µM LPA
Protocol: Microglial activation was then triggered by the addition of 10 µM LPA, slices incubated for 3 additional hours, then fixed. Slices were immunostained against IBA1 and microglial perimeters were measured as a mean of differentiating between ramified/resting versus rounded/activated microglia.
Brains were harvested from mice (postnatal day 20, Charles River). […] 400 µm thick coronal slices were cut on a McIlwain tissue chopper and returned to dissection media and separated manually. […] Slices were incubated for 2 h at 37 °C (4 slices per condition). Microglial activation was initiated by adding LPA (18:1, Avanti Polar Lipids) to a final concentration of 10 µM and incubated for 3 h. Slices were then fixed in formalin and for 2 h.
For immunohistochemistry, slices were washed for 3 × 15 min in 0.5% Triton-X100 and DPBS. Slices were then stained using IBA-1 antibody (Thermo Scientific) in 10% normal goat serum with 0.5% Triton-X100 in DPBS overnight on a rocker. Slices were then washed in 0.5% Triton-X100 in DPBS 3 × 15 min. Goat anti-mouse Alexa 564 (1:500, Invitrogen, Carlsbad, CA) and […] (Invitrogen, Carlsbad, CA) were diluted in DPBS with 0.5% Triton-X100 and incubated for 2h. Slices were washed 3 × 15 min in DPBS with 0.5% Triton-X100, mounted with Fluoromount and imaged on a Nikon A1R confocal microscope.

[2] = parameters: method as in PMID 34969771, PMID 30201408; details: cited from earlier work
[3] = target: T1, autotaxin (Rattus norvegicus, UniProt Q64610); experiment: LPA species in macrophage-conditioned media; format: cell-based; details: 1 µM, 48 h
T1 construct: Male Sprague Dawley rat macrophages were isolated from intraperitoneal lavage fluid; endogenous in cells; host or cells: primary rat peritoneal macrophages
Protocol: Autotaxin (ATX), an enzyme responsible for LPA synthesis, is elevated in CSF samples from multiple sclerosis patients and may be an underlying source of elevated LPA levels in the CNS during disease. […] To confirm the release of LPA from these macrophages, macrophage-conditioned media was taken 30 min or 48 h after plating and various LPA species were measured by mass spectrometry.
Rat macrophages were cultured as described above. Media from wells at 30 m or 48 h post-plating were taken. Media from macrophages treated with 1 µM PF-8380 (autotaxin inhibitor, Sigma, St Louis, MO) for 48 h was also collected. For LPA determination, 20 µl of culture media was aliquoted into glass 12 × 75 mm culture test tubes. 500 µl of 30 mM citric acid/40 mM disodium phosphate buffer (pH 4.0) with 1 ng/ml 17:0 LPA as an internal standard (IS) were also added to the test tubes. 2 ml of 1-butanol were then added to the test tubes, tubes covered with parafilm, vortexed for 10 s, and centrifuged for 10 min at 1000g at 4 °C. After centrifugation, the top layers were transferred to clean test tubes. The bottom layers were extracted again with 1 ml of water-saturated butanol. The test tubes were covered with parafilm, vortexed for 10 s, and centrifuged for 10 min at 1000g at 4 °C. […] After reconstitution, the samples were analyzed by LC–MS/MS using an AB Sciex 6500 + . […]

[4] = test system: ROCK (Rho-associated kinase); parameters: method as in PMID 25289646; details: cited from earlier work

In the case of Cc1noc(-c2ccc(-c3ccc(C4(C(=O)O)CC4)cc3)cc2)c1NC(=O)O[C@H](C)c1ccccc1 [AM152, reference compound], the “effect on LPA-induced decrease in microglial perimeter length” value [1] is listed as “inhibits microglial activation; also recorded: inhibited” and the “Phase 1 tolerability” value [2] is listed as “demonstrated Phase 1 tolerability”.

For CCCN(C)C(=O)OCc1c(-c2ccc(O[C@H]3CCC[C@H](C(=O)O)C3)c(C)n2)nnn1C [BMS-986278], the “Phase 1 tolerability” value [2] is given as “demonstrated Phase 1 tolerability”.

With O=C(CCN1CCN(C(=O)OCc2cc(Cl)cc(Cl)c2)CC1)c1ccc2[nH]c(=O)oc2c1 [PF-8380] the “effect on increase of LPA species in macrophage-conditioned media” value [3] was “prevents the induction of several LPA species; also recorded: inhibited”.

In the case of O=S(=O)(c1cccc2cnccc12)N1CCCNCC1 [fasudil], the “effect on OPC differentiation” value [4] is given as “leads to OPC differentiation”.

— article PMC11079064, “Discovery of a brain penetrant small molecule antagonist targeting LPA1 receptors to reduce neuroinflammation and promote remyelination in multiple sclerosis” (Scientific Reports, 2024)
